US5378473A, “Transdermal administration of short or intermediate half-life benzodiazepines” (Cygnus Therapeutic Systems, priority 1993, dated 1995)

Test: Estimate of skin flux required to deliver therapeutically effective amounts of alprazolam transdermally
Details: practical skin area (less than about 100 cm^2); estimated from published pharmacokinetic data
Experimental: Based on the published pharmacokinetic data on alprazolam, applicants estimated that skin flux in the range of at least about 1 μg/cm^2 /hr would be required to deliver therapeutically effective amounts of alprazolam transdermally through a practical skin area (i.e., less than about 100 cm^2). However, when applicants measured the in vitro flux of alprazolam through skin from a propylene glycol solution, they found the flux was several-fold less than the flux required to deliver a therapeutic amount of the drug through such an area of skin. […]

## Cc1nnc2n1-c1ccc(Cl)cc1C(c1ccccc1)=NC2 [Alprazolam, 8-chloro-1-methyl-6-phenyl-4H-1,2,4-triazolo(4,3-a)(1,4)benzodiazepine]
  skin flux required to deliver therapeutically effective amounts transdermally: at least 1 μg/cm^2 /hr
